A word on the EC50: it is the concentration needed to bring the measured effect to its halfway point.

The subject of the assay is HIV. As to the kind of experiment: Cellular assay: anti-viral activity in HIV-infected MT4 cells (MTT read-out). It counts as cell-based. The conditions noted are these: Human immunodeficiency virus 1, 120 h, five days incubation, MTT cell viability, negative logarithm of EC50 (protection of 50% of cells from cytopathogenic effect of the virus). How it is done:
The compounds of the present invention were examined for anti-viral activity in a cellular assay, which was performed according to the following procedure.
HIV- or mock-infected MT4 cells were incubated for five days in the presence of various concentrations of the inhibitor. At the end of the incubation period, the replicating virus in the control cultures has killed all HIV-infected cells in the absence of any inhibitor. Cell viability was determined by measuring the concentration of MTT, a yellow, water soluble tetrazolium dye that is converted to a purple, water insoluble formazan in the mitochondria of living cells only. Upon solubilization of the resulting formazan crystals with isopropanol, the absorbance of the solution was monitored at 540 nm. The values correlate directly to the number of living cells remaining in the culture at the completion of the five day incubation. The inhibitory activity of the compound was monitored on the virus-infected cells and was expressed as EC50 and EC90. These values represent the amount of the compound required to protect 50% and 90%, respectively, of the cells from the cytopathogenic effect of the virus. The toxicity of the compound was measured on the mock-infected cells and was expressed as CC50, which represents the concentration of compound required to inhibit the growth of the cells by 50%. The selectivity index (SI) (ratio CC50/EC50) is an indication of the selectivity of the anti-HIV activity of the inhibitor. Wherever results are reported as e.g. pEC50 or pCC50 values, the result is expressed as the negative logarithm of the result expressed as EC50 or CC50 respectively.
Consider `Cn1c2ccccc2c2c1ccc(=O)n2-c1cc2ccccc2s1` [Compound 6], for which the EC50 is 12.6 µM.

As for `Cn1c2ccccc2c2c1cc(C#N)c(=O)n2-c1ccc(Cl)nc1` [Compound 7, 1-(6-Chloropyridin-3-yl)-5-methyl-2-oxo-2,5-dihydro-1H-pyrido[3,2-b]indole-3-carbonitrile], the EC50 is 0.794 µM. Take `Cn1c2ccccc2c2c1cc(C#N)c(=O)n2-c1cnc2ccccc2c1` [Compound 9]: the EC50 was 2.51 µM. The figure for `Cn1c2ccccc2c2c1cc(C#N)c(=O)n2-c1cncnc1` [Compound 11] is 20 µM; for `Cn1c2ccccc2c2c1cc(C#N)c(=O)n2-c1ccc(C#N)nc1` [Compound 14] it is 10 µM. For the compound `Cn1ccc2cc(-n3c(=O)ccc4c3c3ccccc3n4C)ccc21` [Compound 17], the EC50 is 6.31 µM. For the compound `N#Cc1cc2[nH]c3ccccc3c2n(-c2ccnc(Cl)c2)c1=O` [Compound 19], the EC50 is 15.8 µM.

On to `Cn1c2ccccc2c2c1cc(C#N)c(=O)n2-c1ccnc(C(N)=O)c1` [Compound 20], for which the EC50 is 5.01 µM. As for `Cn1c2ccccc2c2c1cc(C#N)c(=O)n2-c1ccc2nc(C(F)(F)F)cn2c1` [Compound 21], the EC50 is 12.6 µM. `N#Cc1cc2[nH]c3ccccc3c2n(-c2ccc(Cl)nc2)c1=O` [Compound 26]: the EC50 was 2.51 µM. On to `Cn1c2ccccc2c2c1ccc(=O)n2-c1cnc2ccccc2c1` [Compound 27], for which the EC50 was 6.31 µM. The figure for `Cn1c2ccccc2c2c1cc(C#N)c(=O)n2-c1ccc(Br)nc1` [Compound 28] is 3.16 µM. The figure for `Cc1ccc(-n2c(=O)c(C#N)cc3c2c2ccccc2n3C)cn1` [Compound 32, 5-Methyl-1-(6-methyl-pyridin-3-yl)-2-oxo-2,5-dihydro-1H-pyrido[3,2-b]indole-3-carbonitrile] is 1 µM; for `Cc1cc(-n2c(=O)c(C#N)cc3c2c2ccccc2n3C)cnc1Cl` [Compound 34, 1-(6-Chloro-5-methyl-pyridin-3-yl)-5-methyl-2-oxo-2,5-dihydro-1H-pyrido[3,2-b]-indole-3-carbonitrile] it is 0.794 µM; for `COc1ccc(-n2c(=O)c(C#N)cc3c2c2ccccc2n3C)cn1` [Compound 35] it is 3.16 µM.

For `Cn1c2ccccc2c2c1cc(C#N)c(=O)n2-c1ccc(F)nc1` [Compound 36], the EC50 was 7.94 µM. The figure for `COc1ncc(-n2c(=O)c(C#N)cc3c2c2ccccc2n3C)cn1` [Compound 37] is 2.51 µM; for `Cn1c2ccc(O)cc2c2c1cc(C#N)c(=O)n2-c1ccc(Cl)nc1` [Compound 43, 1-(6-Chloro-pyridin-3-yl)-8-hydroxy-5-methyl-2-oxo-2,5-dihydro-1H-pyrido[3,2-b]-indole-3-carbonitrile] it is 3.98 µM.

For the origin of these results see patent publication US7615639B2, “1-pyridyl-benzofuro[3,2-b]pyridin-2(1H)-ones” (Tibotec Pharmaceuticals, Ltd., priority 2004, dated 2009).
